Results taken from paper PMC11845477, “Exploring the principles behind antibiotics with limited resistance” (Nature Communications, 2025).
Like-named read-outs stand apart in the source and are kept apart here. Where a SMILES comes first, the peptide text is derived from it. Bridges are numbered along the chain shown (N, C = ends). [ ]: non-standard residue; d: D form. The star is where a group is joined. X1 = NC[C@@H](CC(=O)*)c1cccc(Cl)c1; X2 = CC[C@H](C)CCCCC(=O)*; Dab = NCC[C@H](N)C(=O)O; Dap = NC[C@H](N)C(=O)O

Tests used:
[1] = test system: T1, P. aeruginosa ATCC BAA-3107; experiment: microbe, parasite or virus in culture; design: Serial broth microdilution MIC (CLSI), OD600 below 0.05, 384-well plates, MHB medium; conditions: Pseudomonas aeruginosa, ATCCBAA3107, 18 h; ancestor strain before evolution
T1 construct: ATCC BAA-3107
Protocol: A final concentration of 5 × 10^5 bacterial cells per mL were inoculated into each well containing 60 µL MHB medium. Bacterial cultures were incubated at 37 °C with continuous shaking (Infors shaker, 900 rpm with 3 mm throw) for 18 hours (2 replicates from each). Cell growth was monitored by measuring the optical density (OD600 values, using Biotek Synergy microplate reader). MIC was defined as the antibiotic concentration of complete growth inhibition (i.e., OD600 < 0.05). Relative MIC was calculated as follows:1 relativeMIC=MICevolved/MICancestor This study focused on multiple bacterial strains, as follows. For the FoR and ALE experiments, 2 strains per species were chosen: E. coli ATCC 25922, K. pneumoniae ATCC 10031, A. baumannii ATCC 17978, and P. aeruginosa ATCC BAA-3107 as sensitive (SEN) strains, and E. coli NCTC13846, K. pneumoniae ATCC 700603, A. baumannii ATCC BAA-1605 and P. aeruginosa LESB58 as multi-drug resistant (MDR) strains. Functional metagenomic screens were performed with E. coli ATCC 25922 and K. pneumoniae ATCC 10031 strains. To determine the dose-kill properties of the different antibiotics, an E. coli strain (ATCC 25922) expressing a yellow fluorescent protein (pZS2R, YFP, CHL^R) and a red fluorescent protein (pZS2R, mCherry, CHL^R) was used.

[2] = test system: polymyxin B-resistant lines of K. pneumoniae (KP-SEN); experiment: Cross-resistance of polymyxin B resistant evolved lines, relative MIC; format: cell-based, Klebsiella pneumoniae
From the text: (§1) To further investigate potential overlaps in resistance mechanisms, we examined the extent of cross-resistance between polymyxin B and other antibiotics that target the bacterial membrane.
(§2) Fig. 7 Cross-resistance of polymyxin B resistant lines to ST and DT permeabilizer antibiotics. […] 3 independently evolved lines from each investigated species were studied, including E. coli (EC), K. pneumoniae (KP), A. baumannii (AB), and P. aeruginosa (PA). Gray color of the main heatmap indicates combinations not tested due to intrinsic resistance of ancestor strain. The additional heatmap to the right depicts genes mutated in each polymyxin B-adapted line and their involvement in specific cellular processes based on KEGG (Kyoto Encyclopedia of Genes and Genomes) and COG (Clusters of Orthologous Genes) databases. The distances between antibiotics were computed using the Euclidean distance method based on the log-transformed MIC values. The clustering was performed using the complete linkage method. […] For detailed information on antibiotic and bacterial strain abbreviations, see Supplementary Data 1. Source data are provided as a Source Data file.
(§3) A robotic liquid handling system was used to automatically prepare a 11 to 16-step serial dilution in 384-well microtiter plates (Greiner). A final concentration of 5 × 10^5 bacterial cells per mL were inoculated into each well containing 60 µL MHB medium. Bacterial cultures were incubated at 37 °C with continuous shaking (Infors shaker, 900 rpm with 3 mm throw) for 18 hours (2 replicates from each). Cell growth was monitored by measuring the optical density (OD600 values, using Biotek Synergy microplate reader). MIC was defined as the antibiotic concentration of complete growth inhibition (i.e., OD600 < 0.05). Relative MIC was calculated as follows:1 relativeMIC=MICevolved/MICancestor […]
(§4) Supplementary Figure 6. Susceptibility of Polymyxin B resistant lines to other ST and DT […]
(§5) dividing the MIC of the evolved line by that of the corresponding ancestor) of 12 polymyxin B resistant lines to ST and DT permeabilizer antibiotics used in this study. Each data point represents a distinct adaptive laboratory evolved polymyxin B resistant line. Boxplots show the median, first and third quartiles, with whiskers showing the 5th and 95th percentiles. P values were calculated using Dunn's post-hoc test with Benjamini-Hochberg correction (NS indicates p > 0.05, ** / **** indicates p < 0.01 / 0.0001, respectively). The resistance level of polymyxin B resistant lines to polymyxin B (PMB), […]
(§6) For detailed information on antibiotic and bacterial strain abbreviations, see Supplementary Table 1. Source data are provided as a Source […]
(§7) (1 picture or pasted object on this page, not shown here)

[3] = test system: polymyxin B-resistant lines of P. aeruginosa (PA-SEN); experiment: as above; format: cell-based, Pseudomonas aeruginosa
From the text: as §1, §2, §3, §4, §5, §6, §7

[4] = test system: Escherichia coli, Klebsiella pneumoniae, Acinetobacter baumannii, and Pseudomonas aeruginosa; conditions: all species; cited from earlier work
[5] = test system: A. baumannii ATCC 17978 (SEN) and A. baumannii ATCC BAA-1605 (MDR); conditions: after 60 days of evolution; cited from earlier work
From the text: (§8) Using the same set of bacterial strains, we initiated adaptive laboratory evolution with the aim to maximize the level of antibiotic resistance in the populations achieved during a longer, but fixed time period. As expected, resistance levels were generally much higher than those observed in FoR assay. […] For instance, after 60 days of evolution, resistance levels increased by a maximum of fourfold in A. baumannii and in the E. coli sensitive strain e ...

[6] = test system: E. coli ATCC 25922 (SEN) and E. coli NCTC13846 (MDR); conditions: E. coli sensitive strain, after 60 days of evolution; cited from earlier work
From the text: as §8

[7] = test system: K. pneumoniae ATCC 10031 (SEN) and K. pneumoniae ATCC 700603 (MDR); design: method as in PMID 39805953; conditions: K. pneumoniae sensitive strain; cited from earlier work
[8] = test system: P. aeruginosa ATCC BAA-3107 (SEN) and P. aeruginosa LESB58 (MDR); conditions: cited from earlier work
From the text: page 10: Mobile resistance genes against DT permeabilizer were rare in human-associated microbiomes and clinically relevant pathogens, while they were abundant against ST permeabilizers.

[9] = test system: E. coli ATCC 25922 (SEN) and E. coli NCTC13846 (MDR); design: method as in PMID 39805953; conditions: cited from earlier work
[10] = test system: A. baumannii ATCC 17978 (SEN) and A. baumannii ATCC BAA-1605 (MDR); design: method as in PMID 39805953; conditions: cited from earlier work
[11] = KP-SEN, polymyxin B-resistant evolved line 1, MIC evolved/MIC ancestor
[12] = KP-SEN, polymyxin B-resistant evolved line 3, MIC evolved/MIC ancestor
[13] = KP-SEN, polymyxin B-resistant evolved line 7, MIC evolved/MIC ancestor
[14] = polymyxin B-resistant evolved line 1 of KP-SEN, MIC relative to ancestor
[15] = polymyxin B-resistant evolved line 3 of KP-SEN, MIC relative to ancestor
[16] = polymyxin B-resistant evolved line 7 of KP-SEN, MIC relative to ancestor
[17] = PA-SEN, polymyxin B-resistant evolved line 1, MIC evolved/MIC ancestor
[18] = PA-SEN, polymyxin B-resistant evolved line 5, MIC evolved/MIC ancestor
[19] = PA-SEN, polymyxin B-resistant evolved line 7, MIC evolved/MIC ancestor
[20] = polymyxin B-resistant evolved line 1 of PA-SEN, MIC relative to ancestor
[21] = polymyxin B-resistant evolved line 5 of PA-SEN, MIC relative to ancestor
[22] = polymyxin B-resistant evolved line 7 of PA-SEN, MIC relative to ancestor

Row | Molecule | Relative MIC [2, 11] | Relative MIC [2, 12] | Relative MIC [2, 13] | Relative MIC [2, 14] | Relative MIC [2, 15] | Relative MIC [2, 16] | Relative MIC [3, 17] | Relative MIC [3, 18] | Relative MIC [3, 19] | Relative MIC [3, 20] | Relative MIC [3, 21] | Relative MIC [3, 22] | resistance level (relative MIC) after FoR assay [7] | increase in resistance level after adaptive laboratory evolution [8] [fold] | other results
1 | Nc1nc(-n2cc(C(=O)O)c(=O)c3cc(F)c(N4CC(O)C4)c(Cl)c32)c(F)cc1F [Delafloxacin] |  |  |  |  |  |  |  |  |  |  |  |  |  |  | MIC [1]: 0.0156 µg/mL
2 | POL7306 | 1 | 32 | 32 | 1 | 32 | 32 | 1 | 1 | 4 | 1 | 1 | 4 |  |  | 
3 | CC(C)c1ccc(Cn2ccc3c4c(N)nc(NC5CC5)nc4ccc32)cc1 [SCH79797] | 1 | 1 | 1 | 1 | 1 | 1 |  |  |  |  |  |  |  |  | average increment in resistance level (relative MIC) after FoR assay [4]: less than fourfold; increase in resistance level after adaptive laboratory evolution [5]: fourfold; increase in resistance level after adaptive laboratory evolution [6]: fourfold
4 | CC(C)C[C@@H]1NC(=O)[C@@H](Cc2ccccc2)NC(=O)[C@H](CCN)NC(=O)[C@@H](NC(=O)[C@H](CN)NC(=O)[C@@H](NC(=O)C[C@H](CN)c2cccc(Cl)c2)[C@@H](C)O)CCNC(=O)[C@H]([C@@H](C)O)NC(=O)[C@H](CCN)NC(=O)[C@H](CCN)NC1=O [SPR206] (X1-T[Dap][Dab][Dab][dF]L[Dab][Dab]T; lactam 3-C (inferred); N-terminus assumed) | 32 | 128 | 128 | 32 | 128 | 128 | 64 | 64 | 32 | 64 | 64 | 32 | more than 128 fold | 32 | resistance level (relative MIC) after FoR assay ([9]; E. coli sensitive strain): more than 128 fold
5 | CC[C@H](C)CCCCC(=O)N[C@@H](CCN)C(=O)N[C@H](C(=O)N[C@@H](CCN)C(=O)N[C@H]1CCNC(=O)[C@H]([C@@H](C)O)NC(=O)[C@H](CCN)NC(=O)[C@H](CCN)NC(=O)[C@H](CC(C)C)NC(=O)[C@@H](Cc2ccccc2)NC(=O)[C@H](CCN)NC1=O)[C@@H](C)O [Polymyxin B] (X2-[Dab]T[Dab][Dab][Dab][dF]L[Dab][Dab]T; lactam 4-C (inferred); N-terminus assumed) | 32 | 64 | 64 | 32 | 64 | 64 | 32 | 32 | 8 | 32 | 32 | 8 | no resistant mutants emerged | 32 | resistance level (relative MIC) after FoR assay ([10]; A. baumannii multidrug-resistant (MDR) strain): more than 128 fold; resistance level (relative MIC) after FoR assay ([10]; A. baumannii sensitive strain): no resistant mutants emerged; resistance level (relative MIC) after FoR assay ([9]; multidrug-resistant E. coli strain): no resistant mutants emerged
6 | colistin | 32 | 64 | 32 | 32 | 64 | 32 | 32 | 32 | 16 | 32 | 32 | 16 |  |  | 
